From PubChem BioAssay AID652087 (The Scripps Research Institute Molecular Screening Center, 2013)
Calls of active or inactive are those of the source.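 The calls were made as follows: active = inhibition above 30%; inactive = inhibition at or below 30%.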

Each molecule was assayed against Sphingosine 1-phosphate receptor 1 (Homo sapiens) (UniProt P21453) (assay: S1P1 receptor antagonists, human, confirmation, counter-screen for OPRK1 antagonist project, cell-based, fluorescence (AID 652087)). Settings: Tango EDG-1-bla U2OS, beta-lactamase FRET, S1P antagonism; at 9 µM; hits give high values.
Sphingosine 1-phosphate receptor 1 (Homo sapiens), sequence (P21453 whole entry, looked up): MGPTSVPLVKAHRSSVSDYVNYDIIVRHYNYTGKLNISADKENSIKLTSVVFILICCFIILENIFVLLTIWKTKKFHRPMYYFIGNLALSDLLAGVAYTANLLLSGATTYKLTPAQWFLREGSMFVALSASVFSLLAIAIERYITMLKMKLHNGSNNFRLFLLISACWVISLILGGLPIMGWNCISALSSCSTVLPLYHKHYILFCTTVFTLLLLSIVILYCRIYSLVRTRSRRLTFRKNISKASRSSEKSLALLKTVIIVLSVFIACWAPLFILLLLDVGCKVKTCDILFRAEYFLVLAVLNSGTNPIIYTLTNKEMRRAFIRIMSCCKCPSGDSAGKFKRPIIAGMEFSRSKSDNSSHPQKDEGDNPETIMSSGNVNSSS

Structure (SMILES) | inhibition
c1ccc(-c2cc3ncnc(NCc4ccc5c(c4)OCO5)c3s2)cc1 | 4.01% (inactive)
O=[N+]([O-])c1ccc(-c2ccc(/C=N/NC(=S)Nc3cccc(F)c3)o2)cc1 | 67.9%
Oc1c(Cl)cc(Cl)cc1C1Nc2cc(Cl)c(C(F)(F)F)cc2N1 (stereo unspecified) | 38.5%
O=C(N/C(=C\c1ccc(-c2ccc([N+](=O)[O-])cc2)o1)c1nc2ccccc2[nH]1)c1ccccc1 | 73.1%
COc1ccccc1C1CCN(Cc2ccc3c(c2)CCC(C)(C)O3)CC1 | -5.53% (inactive)
O=C(O)C(F)(F)C(F)(F)C(=O)NCc1cccc(Cl)c1 | -3.44% (inactive)
O=C(Nc1ccc(Cl)cc1Cl)c1cc([N+](=O)[O-])cc2c1-c1ccc([N+](=O)[O-])cc1C2=O | 63.3%
CN(C)c1cccc2c1c(NC(=O)Nc1ccc(OCc3ccccc3)cc1)nn2C | -0.3% (inactive)
C=CCn1c(-c2sc3nnc(-c4ccccc4)c(-c4ccccc4)c3c2N)n[nH]c1=S | 33.4%
CN(C)c1ccc(-n2nnnc2SCc2ccc(Cl)cc2)cc1 | 37.2%
Nc1c(C(=O)N/N=C/c2ccc3c(c2)OCO3)sc2nnc(-c3ccccc3)c(-c3ccccc3)c12 | 65%
COC(=O)c1ccc(/C=C2\C(=O)Nc3ccccc32)n1-c1ccc(F)cc1 | 9.9% (inactive)
CCCCCC[n+]1ccccc1/C=C/c1ccc(N(C)C)cc1 | 99.1%
O=C(NNC(=O)C(F)(F)F)c1ccc[nH]1 | -19.8% (inactive)
O=[N+]([O-])c1c(Sc2ccc(Cl)cc2)ccc2nsnc12 | 76.9%
O=[N+]([O-])c1ccc(-c2ccc(/C=N/Nc3ccccc3)o2)cc1 | 92.1%
Clc1ccc2c(Nc3ccc4c(c3)OCO4)ccnc2c1 | -9.65% (inactive)
COc1ccccc1NC(=O)NCCN1CCN(Cc2ccccc2)CC1 | 66.8%
Nc1c(C(=O)c2ccccc2)sc2nsc(SCCN3CCCC3)c12 | 27.5% (inactive)
CCOC(=O)c1cn[nH]c1NC(=S)Nc1cccc(C(F)(F)F)c1 | 71.7%
O=C1c2ccc(Cl)c3c(N4CCSCC4)ccc(c23)C(=O)N1c1ccccc1 | -15.7% (inactive)
N#Cc1c(S/C=C(\O)c2cc3ccccc3o2)nc2c(c1C(F)(F)F)CCCC2 | 14.5% (inactive)
N#Cc1cccnc1NNC(=O)COCC(=O)O | 86.5%

Structure (SMILES) | inhibition
CC(=O)N1CCC(C(=O)O/N=C(\N)c2ccc(Cl)cc2)CC1 | 16.3% (inactive)
O=[N+]([O-])c1ccc(C2=NN(c3ccccc3)C(c3ccco3)C2)cc1 (stereo unspecified) | 124%
NC(=NC(=O)c1cccc(C(F)(F)F)c1)c1ccc(C(F)(F)F)cn1 | 47.1%
O=C(c1cnn(-c2ccc(Cl)cc2)c1C(F)(F)F)N1CCN(c2ncnc3ccsc23)CC1 | -19.1% (inactive)
C=CCNC(=S)NNC(=O)c1oc2nc(-c3ccc(Cl)cc3)cc(-c3ccccc3)c2c1N | 8.18% (inactive)
O=[N+]([O-])c1ccc(N2CCc3ccccc32)cc1 | 36.8%
CCCCNc1ccc2c3c(cccc13)C(=O)N(CCCC)C2=O | 93.5%
O=C(/C=C/c1cc(-c2ccccc2)c(C(F)(F)F)s1)c1cccs1 | 23.6% (inactive)
C#Cc1cccc(NC(=O)c2sc3nc4c(c(-c5cccs5)c3c2N)CCCC4)c1 | 46.3%
CC(CCC(C)OC(=O)c1ccccc1C(=O)O)OC(=O)c1ccccc1C(=O)O (stereo unspecified) | -6.9% (inactive)
CSc1ccc(/C=C/c2onc(C)c2[N+](=O)[O-])s1 | 10.1% (inactive)
CCCCCCCCCCCC(=O)ON1C(=O)CCC1=O | 51.2%
CC1COC(c2cccc([N+](=O)[O-])c2)N1 (stereo unspecified) | 2.16% (inactive)
O=[N+]([O-])c1ccc(N/N=C2\CCOc3ccc(F)cc32)cc1 | 23.2% (inactive)
O=C(Nc1ccc([N+](=O)[O-])cc1)Nc1csc(-c2cccnc2)n1 | 5.35% (inactive)
CCOC(=O)C1CCN(Cc2cccc(NC(=O)c3cccs3)c2)CC1 | 15.1% (inactive)
CCOC(=O)[C@@H](N)CCSC | -3.49% (inactive)
CCN(CC)c1ccc(/C=C/c2ccc([N+](=O)[O-])cc2C#N)cc1 | 55.7%
Cn1c(=O)c2cc3cc(Cl)ccc3nc2c2c(=O)n(-c3ccccc3)c(=O)n(-c3ccccc3)c21 | 59.2%
CCOC(=O)c1cc(C(=O)OC)c(C)nc1N1CCC(NC2CCCCC2O)CC1 (stereo unspecified) | -1.54% (inactive)
S=C(NNc1c(Cl)cncc1Cl)Nc1ccc(Cl)cc1Cl | 45.3%
CCOC(=O)C1CCN(Cc2cccc(NC(=O)c3ccco3)c2)CC1 | 15.4% (inactive)

The remaining lines, values ahead:

inhibition | Structure (SMILES)
15.2% (inactive) | O=c1c2cc(-c3ccccc3)sc2nnn1/N=C/c1cccs1
-6.28% (inactive) | CC(=O)Nc1onc(C)c1-c1nc(-c2ccc(Cl)cc2Cl)cs1
18.7% (inactive) | CSc1sc(C(=O)NC(=O)Nc2ccc(Cl)cc2)c2c1-c1nocc1CC2
-12.7% (inactive) | COc1cccc(C(=O)c2sc3nsc(SCc4ccc(F)cc4)c3c2N)c1
52.1% | COc1cccc(/C=C(\C#N)c2ccc([N+](=O)[O-])cc2)c1OC
79.4% | O=[N+]([O-])c1ccc(N/N=C/c2ccc(-c3cccs3)s2)nc1
-25.2% (inactive) | CCOC(=O)c1ccc(N2CC3CCCCN3C2c2cccc(OC)c2O)cc1 (stereo unspecified)
94.9% | Clc1ccc2nc3c(nc2c1)Nc1ccccc1S3
-11.8% (inactive) | CS(=O)(=O)/C(C#N)=C\c1ccc(Cl)s1
51.5% | O=C(Nc1ccc(F)c(Cl)c1)c1cc(Br)ccc1O
3.13% (inactive) | COc1cc([N+](=O)[O-])c(OC)cc1SCc1n[nH]c(=S)n1-c1ccc(C)cc1
42.5% | COC(=O)/C=C1\SC(=Nc2ccc(Cl)cc2)N(c2ccc(Cl)cc2)C1=O
15.3% (inactive) | N#Cc1cccc(C#N)c1Oc1ccc(N)cc1
11.6% (inactive) | COc1ccc(OS(=O)(=O)c2sc(Br)cc2Br)cc1
2.13% (inactive) | CC(=O)c1sc2nc(-c3cccs3)cc(C(F)(F)F)c2c1N
-14.9% (inactive) | CN(C)c1cc(NC(=O)Nc2ccccc2)c2ccccc2n1
65.4% | Brc1ccc(-c2csc(Nc3ccncc3)n2)cc1
45.1% | COC(=O)c1cnn(-c2ccc(Cl)cc2)c1C=C(C#N)C#N
-0.81% (inactive) | Cc1ccc(/C=c2\sc3nc4ccccc4n3c2=O)o1
12.7% (inactive) | COc1ccc([N+](=O)[O-])c(S(=O)(=O)c2ccc(Cl)cc2)n1
9.19% (inactive) | COC(=O)c1cc(-c2ccc(OC)cc2)c(-c2ccc(OC)cc2)s1
